Results on four compounds are retold here after patent publication US20090170872A1, “Compounds and Their Pharmaceutical Use” (Orchid Research Laboratories Limited, priority 2005, published 2009).

Broadly, the inhibition is the percentage by which the read-out fell short of the control.

The target of one assay is T1, COX-2 (Homo sapiens, UniProt P35354).
T1 sequence (P35354 18-604): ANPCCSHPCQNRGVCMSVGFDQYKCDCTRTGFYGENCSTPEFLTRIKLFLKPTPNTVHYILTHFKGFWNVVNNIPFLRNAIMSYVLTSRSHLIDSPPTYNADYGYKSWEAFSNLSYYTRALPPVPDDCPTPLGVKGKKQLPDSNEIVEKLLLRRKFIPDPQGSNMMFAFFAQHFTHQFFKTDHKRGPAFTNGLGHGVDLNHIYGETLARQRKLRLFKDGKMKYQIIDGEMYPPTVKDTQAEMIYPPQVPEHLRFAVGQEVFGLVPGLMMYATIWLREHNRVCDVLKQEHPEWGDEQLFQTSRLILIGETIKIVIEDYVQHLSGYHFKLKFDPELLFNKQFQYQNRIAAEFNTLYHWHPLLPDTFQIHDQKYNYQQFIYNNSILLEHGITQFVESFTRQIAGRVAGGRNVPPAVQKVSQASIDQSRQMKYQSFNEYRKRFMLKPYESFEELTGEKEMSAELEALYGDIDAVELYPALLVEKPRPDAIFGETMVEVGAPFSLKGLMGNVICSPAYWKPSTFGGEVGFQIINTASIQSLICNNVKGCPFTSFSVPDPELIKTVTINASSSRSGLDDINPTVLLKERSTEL
Put plainly: COX-2 enzyme based assay (purified recombinant enzyme, prostaglandin EIA). In kind it is biochemical. As for the experimental part: (§1) COX-1 and COX-2 enzyme based assays were carried out to check the inhibitory potential of test compounds on the production of prostaglandin by purified recombinant COX-1/COX-2 enzyme (Proc. Nat. Acad. Sci. USA, 88, 2692-2696, 1991; J. Clin. Immunoassay 15, 116-120, 1992) In this assay, the potential of the test compound to inhibit the production of prostaglandin's either by COX-1 or COX-2 from arachidonic acid (substrate) was measured. This was an enzyme based in-vitro assay to evaluate selective COX inhibition with good reproducibility.
(§2) Arachidonic acid was converted to PGH2 (Intermediate product) by COX1/COX-2 in the presence or absence of the test compound. The reaction was carried out at 37° C. and after 2 minutes it was stopped by adding 1M HCl. The intermediate product PGH2 was converted to a stable prostanoid product PGF2α by SnCl2 reduction. The amount of PGF2α produced in the reaction was inversely proportional to the COX inhibitory potential of the test compound. The prostanoid product was quantified via enzyme immunoassay (EIA) using a broadly specific antibody that binds to all the major forms of prostaglandin, using Cayman ELISA kit as per the procedure outlined by the manufacturer (Cayman Chemicals, Ann Arbor, USA).

Another assay has as its system serum TNF-α production. Put plainly: In-vivo TNF-α inhibition assay (LPS-induced serum TNF-α in mice). The note with it: male Swiss albino mice, oral, serum 90 minutes after LPS challenge. As for the experimental part:
TNF-α inhibitory activity is assessed by in-vivo inhibition of serum TNF-α production in mice. This method is used to assess the inhibitory actions of compounds, on TNF-[…] production in mouse (Griswold et al J Pharmacol Exp Ther 287,705, 1998, Garcia et al, Histol Histopathol 5(1), 43, 1990, and Victor et al, Physiol Res 52,789, 2003). Male Swiss albino mice with body weights equivalent within each group are selected. The animals are fasted for eighteen hours with free access to water. The control group receives only LPS and the drug treatment group receives LPS and the test compound. At the start of the experiment, the drug is administered orally. Thirty minutes later, the animals are given intraperitoneal injection with lipo-polysaccharide (LPS). Blood samples are withdrawn 90 minutes after the LPS challenge, which is the time point of maximal elevation of serum TNF-α activity. Blood was centrifuged for 10 minutes at 4° C. Serum samples were assayed for TNF-[…] levels using Mouse ELISA kit. The Percent Inhibition of TNF-α production is determined by comparison with LPS-treated and LPS/drug treated groups.

The next assay deals with COX-1 (Homo sapiens, UniProt P23219). The experiment in a line: COX-1 enzyme based assay (purified recombinant enzyme, prostaglandin EIA). In kind it is biochemical. As for the experimental part:
as §1, §2

SMILES strings stand for the structures.

Sequence of COX-1 (P23219 24-599): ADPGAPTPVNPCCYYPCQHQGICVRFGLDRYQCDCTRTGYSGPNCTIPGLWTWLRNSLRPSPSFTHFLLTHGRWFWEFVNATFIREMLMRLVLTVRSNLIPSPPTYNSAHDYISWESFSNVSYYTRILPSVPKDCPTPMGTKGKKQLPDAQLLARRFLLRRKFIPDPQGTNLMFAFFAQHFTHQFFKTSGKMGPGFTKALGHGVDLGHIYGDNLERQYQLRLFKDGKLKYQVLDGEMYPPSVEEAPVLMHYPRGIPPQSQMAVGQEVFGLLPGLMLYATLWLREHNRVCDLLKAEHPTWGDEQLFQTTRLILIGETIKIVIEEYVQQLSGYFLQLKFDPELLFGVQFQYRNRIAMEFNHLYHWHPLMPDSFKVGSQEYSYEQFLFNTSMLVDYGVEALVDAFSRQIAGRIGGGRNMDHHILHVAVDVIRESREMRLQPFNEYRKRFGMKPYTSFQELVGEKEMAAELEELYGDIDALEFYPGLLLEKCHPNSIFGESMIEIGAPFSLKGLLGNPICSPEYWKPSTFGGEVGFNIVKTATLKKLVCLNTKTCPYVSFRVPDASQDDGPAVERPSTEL

Regarding `Cc1nccn1CC1CCc2c(c3ccccc3n2C)/C1=N/Oc1ccc(Br)cn1` (stereo not drawn) [Example 17, (4E)-9-methyl-3-[(2-methyl-1H-imidazol-1-yl)methyl]-1,2,3,9-tetrahydro-4H-carbazol-4-one O-[5-bromo-pyridin-2-yl]oxime], on COX-2, the inhibition at 1 µM is 41.5% and the inhibition at 10 µM is 42.7%. In the assay on serum TNF-α production, the “% TNF-α inhibition in in vivo sepsis in mice” value is listed as 82.69%.

In the case of `COc1cc(O/N=C2/c3c(n(C)c4ccccc34)CCC2Cn2ccnc2C)nc(OC)n1` (stereo not drawn) [Example 20, (4E)-9-methyl-3-[(2-methyl-1H-imidazol-1-yl)methyl]-1,2,3,9-tetrahydro-4H-carbazol-4-one O-(2,6-dimethoxypyrimidin-4-yl)oxime], on COX-1, the inhibition at 10 µM was 39.1%. Further, at COX-2, the inhibition at 1 µM was 32.7% and the inhibition at 10 µM worked out at 34.9%.

Regarding `Cc1nccn1CC1CCc2c(c3ccccc3n2C)/C1=N/OC(=O)c1ccc(Br)s1` (stereo not drawn) [Example 62, (4E)-9-methyl-3-[(2-methyl-1H-imidazol-1-yl)methyl]-1,2,3,9-tetrahydro-4H-carbazol-4-one O-[(5-bromothien-2-yl)carbonyl]oxime], the inhibition at 10 µM at COX-1 was determined as 16.4%. Further, on COX-2, the inhibition at 1 µM came out at 42% and the inhibition at 10 µM stood at 36.5%. Also, the “% TNF-α inhibition in in vivo sepsis in mice” value in the assay on serum TNF-α production was 86.10%.

Take `Cc1nccn1CC1CCc2c(c3ccccc3n2C)/C1=N/Oc1ccc(C(F)(F)F)cn1` (stereo not drawn) [Example 21, (4E)-9-methyl-3-[(2-methyl-1H-imidazol-1-yl)methyl]-1,2,3,9-tetrahydro-4H-carbazol-4-one O-[5-trifluoromethyl-pyridin-2-yl]oxime]: on COX-2, the inhibition at 1 µM came out at 23% and the inhibition at 10 µM was 23.6%.
